Source: patent US10226045B2, “Azoline compounds” (priority 2014, dated 2019)
Read-outs that look alike come from different tables or passages of the source.

Tests used:
Format in all cases: in vivo
[1] = system: Vetch Aphid (Megoura viciae); assay: Vetch aphid, broad bean leaf disk test; details: foliar, 120 h
Experimental: B.3 Vetch Aphid (Megoura viciae)
For evaluating control of vetch aphid (Megoura viciae) through contact or systemic means the test unit consisted of 24-well-microtiter plates containing broad bean leaf disks.
The compounds were formulated using a solution containing 75% v/v water and 25% v/v DMSO. Different concentrations of formulated compounds were sprayed onto the leaf disks at 2.5 μl, using a custom built micro atomizer, at two replications.
After application, the leaf disks were air-dried and 5-8 adult aphids placed on the leaf disks inside the microtiter plate wells. The aphids were then allowed to suck on the treated leaf disks and incubated at about 23±1° C. and about 50±5% relative humidity for 5 days. Aphid mortality and fecundity was then visually assessed.

[2] = system: Boll Weevil (Anthonomus grandis); assay: Boll weevil, insect diet microtiter plate test; details: 120 h
Experimental: B.5 Boll Weevil (Anthonomus grandis)
For evaluating control of boll weevil (Anthonomus grandis) the test unit consisted of 96-well-microtiter plates containing an insect diet and 5-10 A. grandis eggs.
The compounds were formulated using a solution containing 75% v/v water and 25% v/v DMSO. Different concentrations of formulated compounds were sprayed onto the insect diet at 5 μl, using a custom built micro atomizer, at two replications.
After application, microtiter plates were incubated at about 25±1° C. and about 75±5% relative humidity for 5 days. Egg and larval mortality was then visually assessed.

[3] = system: Tobacco Budworm (Heliothis virescens); assay: Tobacco budworm, insect diet microtiter plate test; details: 120 h
Experimental: B.4 Tobacco Budworm (Heliothis virescens)
For evaluating control of tobacco budworm (HeliothiS virescens) the test unit consisted of 96-well-microtiter plates containing an insect diet and 15-25 H. virescens eggs.
The compounds were formulated using a solution containing 75% v/v water and 25% v/v DMSO. Different concentrations of formulated compounds were sprayed onto the insect diet at 10 μl, using a custom built micro atomizer, at two replications.
(§1) After application, microtiter plates were incubated at about 28±1° C. and about 80±5% relative humidity for 5 days. Egg and larval mortality was then visually assessed.

[4] = system: Mediterranean Fruitfly (Ceratitis capitata); assay: Mediterranean fruitfly, insect diet microtiter plate test; details: 120 h
Experimental: B.6 Mediterranean Fruitfly (Ceratitis capitata)
For evaluating control of Mediterranean fruitfly (CeratitiS capitata) the test unit consisted of microtiter plates containing an insect diet and 50-80 C. capitata eggs. The compounds were formulated using a solution containing 75% v/v water and 25% v/v DMSO. Different concentrations of formulated compounds were sprayed onto the insect diet at 5 μl, using a custom built micro atomizer, at two replications.
as §1

[5] = system: Diamond Back Moth (Plutella xylostella); assay: Diamond back moth, cabbage leaf dip test; details: foliar
Experimental: B.1 Diamond Back Moth (Plutella xylostella)
The active compound was dissolved at the desired concentration in a mixture of 1:1 (vol:vol) distilled water:aceteone. Surfactant (Kinetic HV) was added at a rate of 0.01% (vol/vol). The test solution was prepared at the day of use.
Leaves of cabbage were dipped in test solution and air-dried. Treated leaves were placed in petri dishes lined with moist filter paper and inoculated with ten 3rd instar larvae. Mortality was recorded 72 hours after treatment.

[6] = system: Orchid Thrips (dichromothrips corbetti); assay: Orchid thrips, floral-immersion technique
Experimental: B.7 Orchid Thrips (dichromothrips corbetti)
Dichromothrips corbetti adults used for bioassay were obtained from a colony maintained continuously under laboratory conditions. For testing purposes, the test compound is diluted in a 1:1 mixture of acetone:water (vol:vol), plus Kinetic HV at a rate of 0.01% v/v.
Thrips potency of each compound was evaluated by using a floral-immersion technique. All petals of individual, intact orchid flowers were dipped into treatment solution and allowed to dry in Petri dishes. Treated petals were placed into individual re-sealable plastic along with about 20 adult thrips. All test arenas were held under continuous light and a temperature of about 28° C. for duration of the assay. After 3 days, the numbers of live thrips were counted on each petal. The percent mortality was recorded 72 hours after treatment.

[7] = system: Green Soldier Stink Bug (Nezara viridula); assay: Green soldier stink bug, sprayed soybean pods in Petri dishes; details: 120 h
Experimental: B.11 Green Soldier Stink Bug (Nezara viridula)
The active compound was dissolved at the desired concentration in a mixture of 1:1 (vol:vol) distilled water:acetone. Surfactant (Kinetic HV) was added at a rate of 0.01% (vol/vol). The test solution was prepared at the day of use.
Soybean pods were placed in glass Petri dishes lined with moist filter paper and inoculated with ten late 3rd instar N. viridula. Using a hand atomizer, approximately 2 ml solution is sprayed into each Petri dish. Assay arenas were kept at about 25° C. Percent mortality was recorded after 5 days.

[8] = system: Rice Green Leafhopper (Nephotettix virescens); assay: Rice green leafhopper, sprayed rice seedlings; details: 72 h
Experimental: B.8 Rice Green Leafhopper (Nephotettix virescens)
Rice seedlings were cleaned and washed 24 hours before spraying. The active compounds were formulated in 1:1 acetone:water (vol:vol), and 0.01% vol/vol surfactant (Kinetic HV) was added. Potted rice seedlings were sprayed with 5-6 ml test solution, air dried, covered with Mylar cages cages and inoculated with 10 adults. Treated rice plants were kept at about 28-29° C. and relative humidity of about 50-60%. Percent mortality was recorded after 72 hours.

[9] = system: Neotropical Brown Stink Bug (Euschistus heros); assay: Neotropical brown stink bug, sprayed soybean pods in cups; details: 120 h
Experimental: B.12 Neotropical Brown Stink Bug (Euschistus heros)
(§2) The active compound was dissolved at the desired concentration in a mixture of 1:1 (vol:vol) distilled water: acetone. Surfactant (Kinetic HV) was added at a rate of 0.01% (vol/vol). The test solution was prepared at the day of use.
Soybean pods were placed in microwavable plastic cups and inoculated with ten adult stage E. heros. Using a hand atomizer, approximately 1 ml solution is sprayed into each cup, insects and food present. A water source was provided (cotton wick with water). Each treatment was replicated 2-fold. Assay arenas were kept at about 25° C. Percent mortality was recorded after 5 days.

[10] = system: Brown Marmorated Stink Bug (Halyomorpha halys); assay: Brown marmorated stink bug, sprayed peanuts and soybean seeds in cups; details: 120 h
Experimental: B.13 Brown Marmorated Stink Bug (Halyomorpha halys)
as §2
Row peanuts and soybean seeds were placed into microwavable plastic cups and inoculated with five adult stage H. halys. Using a hand atomizer, approximately 1 ml solution is sprayed into each cup, insects and food present. A water source was provided (cotton wick with water). Each treatment is replicated 4-fold. Assay arenas are kept at about 25° C. Percent mortality was recorded after 5 days.

[11] = system: Red Spider Mite (Tetranychus kanzawai); assay: Red spider mite, sprayed cowpea beans; details: 72 h
Experimental: B.9 Red Spider Mite (Tetranychus kanzawai)
The active compound was dissolved at the desired concentration in a mixture of 1:1 (vol:vol) distilled water:acetone. Add surfactant (Kinetic HV) was added at a rate of 0.01% (vol/vol). The test solution was prepared at the day of use.
Potted cowpea beans of 4-5 days of age were cleaned with tap water and sprayed with 1-2 ml of the test solution using air driven hand atomizer. The treated plants were allowed to air dry and afterwards inoculated with 30 or more mites by clipping a cassava leaf section from rearing population. Treated plants were placed inside a holding room at about 25-27° C. and about 50-60% relative humidity. Percent mortality was assessed 72 hours after treatment.

[12] = system: Green Peach Aphid (Myzus persicae); assay: Green peach aphid, systemic test on artificial diet in microtiter plates; details: 72 h
Excerpt: B.2 Green Peach Aphid (Myzus persicae)
For evaluating control of green peach aphid (Myzus persicae) through systemic means the test unit consisted of 96-well-microtiter plates containing liquid artificial diet under an artificial mem brane.
The compounds were formulated using a solution containing 75% v/v water and 25% v/v DMSO. Different concentrations of formulated compounds were pipetted into the aphid diet, using a custom built pipetter, at two replications.
After application, 5-8 adult aphids were placed on the artificial membrane inside the microtiter plate wells. The aphids were then allowed to suck on the treated aphid diet and incubated at about 23±1° C. and about 50±5% relative humidity for 3 days. Aphid mortality and fecundity was then visually assessed.

[13] = 2500 ppm, eggs on sprayed insect diet, egg and larval mortality after 5 days, in comparison with untreated controls, read-out: mortality
[14] = 2500 ppm, adult aphids on treated artificial diet, 3 days, in comparison with untreated controls, read-out: mortality

COC(=O)c1ccc(C2=NOC(c3cc(Cl)c(F)c(Cl)c3)(C(F)(F)F)C2)c2c1CCC2 (stereo not shown) [Compound 1-1, Methyl 7-[5-(3,5-dichloro-4-fluoro-phenyl)-5-(trifluoromethyl)-4H-isoxazol-3-yl]indane-4-carboxylate]
≥ 75%: mortality at 2500 ppm [1] | mortality at 2500 ppm [2] | mortality at 2500 ppm [3] | mortality at 2500 ppm [4] | mortality at 300 ppm ([5]; 72 h) | mortality at 300 ppm ([6]; Thrips, 72 h)

O=C(O)c1ccc(C2=NOC(c3cc(Cl)c(F)c(Cl)c3)(C(F)(F)F)C2)c2c1CCC2 (stereo not shown) [Compound 1-2, 7-[5-(3,5-Dichloro-4-fluoro-phenyl)-5-(trifluoromethyl)-4H-isoxazol-3-yl]indane-4-carboxylic acid]
≥ 75%: mortality at 2500 ppm [2] | mortality at 2500 ppm [3] | mortality at 300 ppm ([5]; 72 h)

O=C(NCC1CC1)c1ccc(C2=NOC(c3cc(Cl)c(F)c(Cl)c3)(C(F)(F)F)C2)c2c1CCC2 (stereo not shown) [Compound 1-3, N-(Cyclopropylmethyl)-7-[5-(3,5-dichloro-4-fluoro-phenyl)-5-(trifluoromethyl)-4H-isoxazol-3-yl]indane-4-carboxamide]
≥ 75%: mortality at 2500 ppm [1] | mortality at 2500 ppm [2] | mortality at 2500 ppm [3] | mortality at 2500 ppm [4] | mortality at 300 ppm ([5]; 72 h) | mortality at 300 ppm [7] | mortality at 300 ppm ([6]; Thrips, 72 h) | mortality at 300 ppm [8] | mortality at 100 ppm [9] | mortality at 100 ppm [10] | mortality at 300 ppm [11] | mortality at 2500 ppm [12]

O=C(O)c1ccc(C2=NCC(c3cc(Cl)c(F)c(Cl)c3)(C(F)(F)F)C2)c2c1CCC2 (stereo not shown) [Compound 2-1, 7-[3-(3,5-Dichloro-4-fluoro-phenyl)-3-(trifluoromethyl)-2,4-dihydropyrrol-5-yl]indane-4-carboxylic acid]
≥ 75%: mortality at 2500 ppm [2, 13] | mortality at 2500 ppm [3, 13] | mortality at 300 ppm ([5]; 300 ppm, 3rd instar larvae on dipped cabbage leaves, 72 hours after treatment, in comparison with untreated controls, read-out: mortality) | mortality at 2500 ppm [12, 14]

COC(=O)c1ccc(C2=NCC(c3cc(Cl)c(F)c(Cl)c3)(C(F)(F)F)C2)c2c1CCC2 (stereo not shown) [Compound 2-2, Methyl 7-[3-(3,5-dichloro-4-fluoro-phenyl)-3-(trifluoromethyl)-2,4-dihydropyrrol-5-yl]indane-4-carboxylate]
≥ 75%: mortality at 2500 ppm ([1]; 2500 ppm, adult aphids on sprayed broad bean leaf disks, 5 days, in comparison with untreated controls, read-out: mortality) | mortality at 2500 ppm [2, 13] | mortality at 2500 ppm [3, 13] | mortality at 300 ppm ([6]; 300 ppm, adult thrips on dipped orchid petals, 72 hours after treatment, in comparison with untreated controls, read-out: mortality) | mortality at 2500 ppm [12, 14]

O=C(O)c1ccc(C2=NOC(c3cc(Cl)cc(Cl)c3)(C(F)(F)F)C2)c2c1CCCC2 (stereo not shown) [Compound 3-2, 8-[5-(3,5-dichlorophenyl)-5-(trifluoromethyl)-4H-isoxazol-3-yl]tetralin-5-carboxylic acid]
≥ 75%: mortality at 2500 ppm [2]

O=C(NCC(F)(F)F)c1ccc(C2=NOC(c3cc(Cl)cc(Cl)c3)(C(F)(F)F)C2)c2c1CCCC2 (stereo not shown) [Compound 3-5, 8-[5-(3,5-dichlorophenyl)-5-(trifluoromethyl)-4H-isoxazol-3-yl]-N-(2,2,2-trifluoroethyl)tetralin-5-carboxamide]
≥ 75%: mortality at 2500 ppm [1] | mortality at 2500 ppm [2] | mortality at 2500 ppm [3] | mortality at 2500 ppm [4] | mortality at 300 ppm ([5]; 72 h) | mortality at 300 ppm ([6]; Thrips, 72 h) | mortality at 300 ppm [8] | mortality at 300 ppm [11] | mortality at 2500 ppm [12]
